In patent publication EP2818471A1, “Nitrogen bicyclic compounds as inhibitors for Scyl1 and Grk5” (Max-Planck-Gesellschaft zur Förderung der Wissenschaften …, priority 2013, dated 2014) one finds Emax data, which are given here for 31 compounds.

A value given as a limit tells only on which side of the number the result lay.

For the assay, the system named is beta-TC6 cells. The experiment in a line: Insulin HTRF assay, relative activity Ar normalized to sunitinib. It counts as cell-based. Conditions: Mus musculus, normalized to positive control sunitinib (5 µM = 100%), Table 10. From the text:
For further screening of compounds derived from compounds described above for their ability to regulate insulin release an insulin HTRF® (Homogeneous Time-Resolved Fluorescence; Cisbio International, France) was used. This assay is based on two antibodies against insulin binding to different epitopes of insulin. One of these antibodies is coupled to Europium (Ab-Eu-Cryptate) and the other one to the fluorophore XL665 (Ab-XL665). Is insulin secreted into the supernatant of cell culture both antibodies can bind to insulin and come therefore into close proximity which allows upon excitation that energy transfer between (FRET) the long-life fluorescent donor Europium (cryptate) and the acceptors XL665. FRET increases proportionally with insulin concentration.
The automated assay protocol is as follows: • On day 1 15k beta-TC6 cells per well were seeded for 24 or 48 h in 50 µl complete medium. On day 2 or respective on day 3 the medium is removed and cells are washed with 60 µl 1xPBS and 20 µl induction buffer is added using BioTek washer. Subsequently, 10 µl Sunitininb (5 µM f.c.) or the test compound in induction buffer; 0.5% f.c. DMSO (CyBi-well) is transferred to the cells. The cells are then incubated at 37°C for 2, 3, 4h.
The HTRF assay is carried out using Greiner 384-well 784075 assay plates. First 10 µl supernatant is transferred from the cell plates in HTRF plates (CyBi-well). 10 µl of 0, 1, 2, and 4 ng/ml Insulin standard controls in assay medium is used as a control. To each well 10 µl of combined 1:25 Ab-XL665 (Acc) and 1:20 Ab-Eu-Cryptate (WellMate) are added and incubated for 120 min at RT in the dark. Finally HTRF is measured on ViewLux ultra high throughput microplate imager (PerkinElmer).
The evaluation software DataFactoty derives relative activities Ar according to the following equation: Ar = (V-R(0%control))/(R(100%control) -R(0%control)) × 100 [formula] […]
The activity of the compounds was classified according to their Ar (relative activity) into the following ranges: Ar ≥ 100% + + + +; 50% ≤ Ar < 100% + + +; 20% ≤ Ar < 50% + +; 10% < Ar < 20% + [formula] Table 10. Ar (relative activity) values of inventive compounds
In turn, `CS(=O)(=O)Nc1cccc(-c2cnc3ccc(Cc4ccc(F)cc4)nn23)c1` [compound 159, N-[3-[6-[(4-fluorophenyl)methyl]imidazo[1,2-b]pyridazin-3-yl]phenyl]methanesulfonamide] had a maximal response (Emax) of 10 to 20%.

Turning to `Nc1ccc(-c2cnc3ccc(Cc4ccccc4)nn23)cn1` [compound 161, 5-(6-benzylimidazo[1,2-b]pyridazin-3-yl)pyridin-2-amine], the Emax is 20 to 50%.

On to `CN(C)/C(=C1\N=C(c2ccccc2)OC1=O)c1cnc2cccnn12` [compound 162, (4Z)-4-[dimethylamino(imidazo[1,2-b]pyridazin-3-yl)methylene]-2-phenyl-oxazol-5-one], for which the Emax was 10 to 20%.

`c1ccc(-c2nnc3ccc(-c4ccc5c(c4)OCO5)cn23)cc1` [compound 164, 6-(1,3-benzodioxol-5-yl)-3-phenyl-[1,2,4]triazolo[4,3-a]pyridine] showed a maximal response (Emax) of 50 to 100%.

`CC(=O)Nc1cccc(-c2ccc3nnc(-c4ccccc4)n3c2)c1` [compound 165, N-[3-(3-phenyl-[1,2,4]triazolo[4,3-a]pyridin-6-yl)phenyl]acetamide]: the maximal response (Emax) fell in the range of 50 to 100%.

Turning to `COc1ccc(-c2ccc3nnc(-c4ccccc4)n3c2)c(C)c1` [compound 166, 6-(4-methoxy-2-methyl-phenyl)-3-phenyl-[1,2,4]triazolo[4,3-a]pyridine], the Emax was ≥ 100%.

In the case of `C(#Cc1ccccn1)c1ccc2nnc(-c3ccccc3)n2c1` [compound 167, 3-phenyl-6-[2-(2-pyridyl)ethynyl]-[1,2,4]triazolo[4,3-a]pyridine], the Emax lay within 50 to 100%.

The compound `CN(C)CC#Cc1ccc2nnc(-c3ccccc3)n2c1` [compound 168, N,N-dimethyl-3-(3-phenyl-[1,2,4]triazolo[4,3-a]pyridin-6-yl)prop-2-yn-1-amine] returned a maximum response (Emax) of 10 to 20%.

Regarding `CS(=O)(=O)Nc1cccc(-c2ccc3nnc(-c4ccccc4)n3c2)c1` [compound 169, N-[3-(3-phenyl-[1,2,4]triazolo[4,3-a]pyridin-6-yl)phenyl]methanesulfonamide], the Emax lay in the range of 50 to 100%.

Consider `Clc1cccc(-c2ccc3nnc(-c4ccc5c(c4)OCO5)n3c2)c1` [compound 170, 3-(1,3-benzodioxol-5-yl)-6-(3-chlorophenyl)-[1,2,4]triazolo[4,3-a]pyridine], for which the Emax lay in the range of 20 to 50%.

Turning to `c1cc(-c2ccc3nnc(-c4ccc5c(c4)OCO5)n3c2)co1` [compound 171, 3-(1,3-benzodioxol-5-yl)-6-(3-furyl)-[1,2,4]triazolo[4,3-a]pyridine], the Emax lay in the range of 50 to 100%.

Turning to `Cn1cncc1C#Cc1ccc2nnc(-c3ccc4c(c3)OCO4)n2c1` [compound 172, 3-(1,3-benzodioxol-5-yl)-6-[2-(3-methylimidazol-4-yl)ethynyl]-[1,2,4]triazolo[4,3-a]pyridine], the Emax lay within 20 to 50%.

The compound `OCC#Cc1ccc2nnc(-c3ccc4c(c3)OCO4)n2c1` [compound 173, 3-[3-(1,3-benzodioxol-5-yl)-[1,2,4]triazolo[4,3-a]pyridin-6-yl]prop-2-yn-1-ol] returned an Emax of 20 to 50%.

Consider `Cn1cc(-c2ccc3nnc(-c4ccc5c(c4)OCO5)n3c2)cn1` [compound 174, 3-(1,3-benzodioxol-5-yl)-6-(1-methylpyrazol-4-yl)-[1,2,4]triazolo[4,3-a]pyridine], for which the maximal response (Emax) is 50 to 100%.

The compound `CNC(=O)c1cccc(-c2ccc3nnc(-c4ccc5c(c4)OCO5)n3c2)c1` [compound 175, 3-[3-(1,3-benzodioxol-5-yl)-[1,2,4]triazolo[4,3-a]pyridin-6-yl]-N-methyl-benzamide] yielded an Emax of 20 to 50%.

`c1cc(-c2nnc3ccc(-c4ccc(N5CCOCC5)cc4)cn23)ccn1` [compound 176, 4-[4-[3-(4-pyridyl)-[1,2,4]triazolo[4,3-a]pyridin-6-yl]phenyl]morpholine] came in with a maximal response (Emax) of 20 to 50%.

In turn, `COc1ccc(-c2ccc3nnc(-c4ccncc4)n3c2)cc1OC` [compound 177, 6-(3,4-dimethoxyphenyl)-3-(4-pyridyl)-[1,2,4]triazolo[4,3-a]pyridine] registered a maximal response (Emax) of 20 to 50%.

As to `FC(F)(F)Oc1cccc(-c2ccc3nnc(-c4ccncc4)n3c2)c1` [compound 178, 3-(4-pyridyl)-6-[3-(trifluoromethoxy)phenyl]-[1,2,4]triazolo[4,3-a]pyridine], the maximal effect (Emax) is 20 to 50%.

Regarding `OCc1ccc(-c2ccc3nnc(-c4ccncc4)n3c2)cc1` [compound 179, [4-[3-(4-pyridyl)-[1,2,4]triazolo[4,3-a]pyridin-6-yl]phenyl]methanol], the Emax lay in the range of 20 to 50%.

For the compound `FC(F)(F)c1cccc(C#Cc2ccc3nnc(-c4ccncc4)n3c2)c1` [compound 180, 3-(4-pyridyl)-6-[2-[3-(trifluoromethyl)phenyl]ethynyl]-[1,2,4]triazolo[4,3-a]pyridine], the Emax lay within 10 to 20%.

Consider `c1ccc(Oc2cccc(-c3ccc4nnc(-c5ccncc5)n4c3)c2)cc1` [compound 181, 6-(3-phenoxyphenyl)-3-(4-pyridyl)-[1,2,4]triazolo[4,3-a]pyridine], for which the maximum response (Emax) fell in the range of 20 to 50%.

`CN(C)c1ccc(-c2ccc3nnc(-c4cccnc4)n3c2)cc1` [compound 182, N,N-dimethyl-4-[3-(3-pyridyl)-[1,2,4]triazolo[4,3-a]pyridin-6-yl]aniline]: the Emax lay within 50 to 100%.

As for `CC(C)c1cccc(-c2ccc3nnc(-c4cccnc4)n3c2)c1` [compound 183, 6-(3-isopropylphenyl)-3-(3-pyridyl)-[1,2,4]triazolo[4,3-a]pyridine], the maximal response (Emax) lay within 50 to 100%.

As to `Clc1ccccc1-c1ccc2nnc(-c3cccnc3)n2c1` [compound 184, 6-(2-chlorophenyl)-3-(3-pyridyl)-[1,2,4]triazolo[4,3-a]pyridine], the maximal effect (Emax) was in the range of 50 to 100%.

Take `COc1ccc(-c2nnc3ccc(-c4cccc(N(C)C)c4)cn23)cc1OC` [compound 185, 3-[3-(3,4-dimethoxyphenyl)-[1,2,4]triazolo[4,3-a]pyridin-6-yl]-N,N-dimethyl-aniline]: the Emax lay in the range of 50 to 100%.

Compound `COc1ccc(-c2nnc3ccc(-c4ccc(S(C)(=O)=O)cc4)cn23)cc1OC` [compound 186, 3-(3,4-dimethoxyphenyl)-6-(4-methylsulfonylphenyl)-[1,2,4]triazolo[4,3-a]pyridine] came in with an Emax of 10 to 20%.

As to `COc1ccc(-c2nnc3ccc(-c4cccc(F)c4)cn23)cc1OC` [compound 187, 3-(3,4-dimethoxyphenyl)-6-(3-fluorophenyl)-[1,2,4]triazolo[4,3-a]pyridine], the Emax is ≥ 100%.

Take `COc1ccc(-c2nnc3ccc(-c4cccc(C(=O)N(C)C)c4)cn23)cc1OC` [compound 188, 3-[3-(3,4-dimethoxyphenyl)-[1,2,4]triazolo[4,3-a]pyridin-6-yl]-N,N-dimethyl-benzamide]: the Emax was in the range of 50 to 100%.

The compound `COc1ccc(-c2nnc3ccc(C#Cc4ccncc4)cn23)cc1OC` [compound 190, 3-(3,4-dimethoxyphenyl)-6-[2-(4-pyridyl)ethynyl]-[1,2,4]triazolo[4,3-a]pyridine] registered a maximal response (Emax) of 50 to 100%.

Turning to `COc1ccc(-c2nnc3ccc(-c4cccs4)cn23)cc1OC` [compound 191, 3-(3,4-dimethoxyphenyl)-6-(2-thienyl)-[1,2,4]triazolo[4,3-a]pyridine], the maximal effect (Emax) lay in the range of 50 to 100%.

`COc1cncc(-c2ccc3nnc(-c4cccc(OC(F)(F)F)c4)n3c2)c1` [compound 192, 6-(5-methoxy-3-pyridyl)-3-[3-(trifluoromethoxy)phenyl]-[1,2,4]triazolo[4,3-a]pyridine] displayed a maximal effect (Emax) of 50 to 100%.
